In article PMC9737838, “Long-Distance Protonation-Conformation Coupling in Phytochrome Species” (Molecules, 2022):

Target: T1, Agp1-PGP (photosensory module PAS-GAF-PHY of Agp1) (Agrobacterium fabrum, UniProt Q7CY45)
T1 construct: gene Atu1990; photosensory module PAS-GAF-PHY, residues 1-504, C-terminal His6 tag; apoprotein from E. coli assembled with biliverdin; plasmids with and without deletion of the first 9 residues used for mutagenesis
T1 sequence (Q7CY45 1-495): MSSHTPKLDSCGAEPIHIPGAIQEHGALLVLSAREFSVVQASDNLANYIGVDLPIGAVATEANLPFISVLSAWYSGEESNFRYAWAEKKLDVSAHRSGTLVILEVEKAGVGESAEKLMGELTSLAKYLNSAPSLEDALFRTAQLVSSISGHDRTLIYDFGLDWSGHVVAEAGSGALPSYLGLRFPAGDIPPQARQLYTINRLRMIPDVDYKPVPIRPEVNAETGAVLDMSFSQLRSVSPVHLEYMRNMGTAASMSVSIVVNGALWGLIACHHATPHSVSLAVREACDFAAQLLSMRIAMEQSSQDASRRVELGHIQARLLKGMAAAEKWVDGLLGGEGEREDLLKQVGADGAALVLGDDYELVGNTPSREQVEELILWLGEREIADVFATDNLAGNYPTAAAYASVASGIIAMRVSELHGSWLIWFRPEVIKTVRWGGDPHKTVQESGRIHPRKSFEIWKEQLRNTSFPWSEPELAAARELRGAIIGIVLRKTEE
Experiment: UV-Vis absorption of the assembled holoprotein, pH titration
Type: binding
Conditions: covalent, Cys20; Pr state, 702 nm band, 300 mM NaCl, 50 mM Tris, 20 °C

**Q.** How did the “UV-Vis absorption of the assembled holoprotein, pH titration” value turn out when `C=CC1=C(C)/C(=C/C2=NC(=C\c3[nH]c(/C=C4\NC(=O)C(C)=C4C=C)c(C)c3CCC(=O)O)/C(CCC(=O)O)=C2C)NC1=O` [BV, biliverdin] was run?
**A.** The value was “The apoprotein was expressed and assembled with BV according to established protocols”.
